Source: PubChem BioAssay AID330 (DTP/NCI, 2004)
Values joined by “and” are separate entries in the source; they are usually repeats but may differ in a detail not shown here. Identical values can stand only once. Toxic doses and inconclusive results are not listed.

Tested on: P388 leukemia ip, CD2F1 mice, survival T/C
Test: NCI In Vivo Anticancer Drug Screen. Data for tumor model P388 Leukemia (intraperitoneal) in CD2F1 (CDF1) mice
Conditions: endpoint: median survival time, higher = longer survival
Outline: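 Mice carrying the transplanted tumor received test compound or vehicle. Survival was recorded in each group, and the value is the treated-group measurement divided by that of the vehicle-treated control group.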

[1] = dose: 60.0 mg/kg/injection, schedule: Q01DX005 (ip), vehicle: Klucel (hydroxypropylcellulose) (HPC)
[2] = dose: 120.0 mg/kg/injection, schedule: Q01DX005 (ip), vehicle: Klucel (hydroxypropylcellulose) (HPC)
[3] = dose: 240.0 mg/kg/injection, schedule: Q01DX005 (ip), vehicle: Klucel (hydroxypropylcellulose) (HPC)
[4] = dose: 12.5 mg/kg/injection, schedule: Q01DX009 (ip), vehicle: saline with Tween-80
[5] = dose: 25.0 mg/kg/injection, schedule: Q01DX009 (ip), vehicle: saline with Tween-80
[6] = dose: 50.0 mg/kg/injection, schedule: Q01DX009 (ip), vehicle: saline with Tween-80
[7] = dose: 50.0 mg/kg/injection, schedule: Q01DX005 (ip), vehicle: saline with Tween-80
[8] = dose: 100.0 mg/kg/injection, schedule: Q01DX005 (ip), vehicle: saline with Tween-80
[9] = dose: 100.0 mg/kg/injection, schedule: Q01DX009 (ip), vehicle: saline with Tween-80
[10] = dose: 200.0 mg/kg/injection, schedule: Q01DX009 (ip), vehicle: saline with Tween-80
[11] = dose: 50.0 mg/kg/injection, schedule: Q01DX005 (ip), vehicle: saline
[12] = dose: 50.0 mg/kg/injection, schedule: Q01DX005 (ip), vehicle: Klucel (hydroxypropylcellulose) (HPC)
[13] = dose: 100.0 mg/kg/injection, schedule: Q01DX005 (ip), vehicle: Klucel (hydroxypropylcellulose) (HPC)
[14] = dose: 200.0 mg/kg/injection, schedule: Q01DX005 (ip), vehicle: Klucel (hydroxypropylcellulose) (HPC)
[15] = dose: 100.0 mg/kg/injection, schedule: Q01DX009 (ip), vehicle: Klucel (hydroxypropylcellulose) (HPC)
[16] = dose: 200.0 mg/kg/injection, schedule: Q01DX009 (ip), vehicle: Klucel (hydroxypropylcellulose) (HPC)
[17] = dose: 50.0 mg/kg/injection, schedule: Q01DX009 (ip), vehicle: Klucel (hydroxypropylcellulose) (HPC)

O=C(NCCO)c1ccc(O)cc1O was tested, and the T/C [1] was 116 % of control, the T/C [2] was 120 % of control and the T/C [3] was 120 % of control.
For C[Si](C)(OC(=O)N(CCCl)CCCl)O[Si](C)(C)OC(=O)N(CCCl)CCCl, the T/C (dose: 6.25 mg/kg/injection, schedule: Q01DX009 (ip), vehicle: saline with Tween-80) was 108 % of control, the T/C [4] was 124 % of control and the T/C [5] was 165 % of control. For the same compound, the T/C [6] was 115 % of control.
For CCOC(=O)C1=C(C)O/C(=C\c2cccc(C(F)(F)F)c2)C1=O, the T/C [7] was 108 % of control and the T/C [8] was 109 % of control.
For CC(C)(C)N=C(CCNC1CCCCC1)Nc1ccccc1Cl, the T/C [6] was 100 % of control, the T/C [9] was 109 % of control and the T/C [10] was 101 % of control.
In the case of O=C(C(Br)C(Br)c1ccccc1)C(Br)C(Br)c1ccccc1 (stereo unspecified), the T/C (dose: 100.0 mg/kg/injection, schedule: Q04DX003 (ip), vehicle: saline sonified) is reported as 104 % of control, the T/C (dose: 200.0 mg/kg/injection, schedule: Q04DX003 (ip), vehicle: saline sonified) is reported as 100 % of control and the T/C (dose: 400.0 mg/kg/injection, schedule: Q04DX003 (ip), vehicle: saline sonified) is reported as 95 % of control.
CN(C)C(CS(=O)(=O)c1ccccc1)c1ccccc1 (stereo unspecified) was tested, and the T/C [1] was 100 % of control, the T/C [2] was 91 % of control and the T/C [3] was 91 % of control.
With C=C1CCCC2CCC[N+](C)(CC(=O)OCC)C12 (stereo unspecified) the T/C [11] was 93 % of control.
CCOC(=O)C1=C(C)NC(C)=C(C(=O)OCC)C1c1cccnc1 was tested, and the T/C (dose: 25.0 mg/kg/injection, schedule: Q01DX009 (ip), vehicle: distilled water + Tween-80) was 101 % of control, the T/C (dose: 50.0 mg/kg/injection, schedule: Q01DX009 (ip), vehicle: distilled water + Tween-80) was 103 % of control and the T/C (dose: 100.0 mg/kg/injection, schedule: Q01DX009 (ip), vehicle: distilled water + Tween-80) was 94 % of control. For the same compound, the T/C (dose: 200.0 mg/kg/injection, schedule: Q01DX009 (ip), vehicle: distilled water + Tween-80) was 93 % of control and the T/C (dose: 400.0 mg/kg/injection, schedule: Q01DX009 (ip), vehicle: distilled water + Tween-80) was 88 % of control.
In the case of COc1ccc2c(Cl)cc(NC(=S)Nc3ccccc3)nc2c1, the T/C (dose: 6.25 mg/kg/injection, schedule: Q01DX009 (ip), vehicle: Klucel (hydroxypropylcellulose) (HPC)) is reported as 103 % of control, the T/C (dose: 12.5 mg/kg/injection, schedule: Q01DX009 (ip), vehicle: Klucel (hydroxypropylcellulose) (HPC)) is reported as 104 % of control and the T/C (dose: 25.0 mg/kg/injection, schedule: Q01DX009 (ip), vehicle: Klucel (hydroxypropylcellulose) (HPC)) is reported as 96 % of control.
Cc1cc(C)c2c(c1)CC(C)(C)CC2(O)C1CCCCN1 (stereo unspecified) was tested, and the T/C [12] was 100 % of control and the T/C [13] was 108 % of control.
Cn1cnc(=O)c2n[nH]nc21 was tested, and the T/C [12] was 100 % of control, the T/C [13] was 100 % of control and the T/C [14] was 87 % of control.
For CCN(CC)CC(C)(C)C(=O)/C=C/c1ccc(Cl)c(Cl)c1, the T/C (dose: 7.5 mg/kg/injection, schedule: Q01DX005 (ip), vehicle: saline) was 102 % of control, the T/C (dose: 15.0 mg/kg/injection, schedule: Q01DX005 (ip), vehicle: saline) was 101 % of control and the T/C (dose: 30.0 mg/kg/injection, schedule: Q01DX005 (ip), vehicle: saline) was 112 % of control. The T/C (dose: 60.0 mg/kg/injection, schedule: Q01DX005 (ip), vehicle: saline) was 110 % of control, the T/C (dose: 120.0 mg/kg/injection, schedule: Q01DX005 (ip), vehicle: saline) was 118 % of control and the T/C (dose: 240.0 mg/kg/injection, schedule: Q01DX005 (ip), vehicle: saline) was 109 % of control.
For CC(=O)N1CCc2ccccc2C1C1c2ccccc2CCN1C(C)=O (stereo unspecified), the T/C (dose: 100.0 mg/kg/injection, schedule: Q04DX003 (ip), vehicle: Klucel (hydroxypropylcellulose) (HPC)) was 94 % of control, the T/C (dose: 200.0 mg/kg/injection, schedule: Q04DX003 (ip), vehicle: Klucel (hydroxypropylcellulose) (HPC)) was 94 % of control and the T/C (dose: 400.0 mg/kg/injection, schedule: Q04DX003 (ip), vehicle: Klucel (hydroxypropylcellulose) (HPC)) was 92 % of control.
In the case of Cc1cc(N(C)C)cc(C)c1N=Nc1cc[n+]([O-])cc1, the T/C [5] is reported as 95 % of control, the T/C [6] is reported as 94 % of control and the T/C [9] is reported as 103 % of control. For the same compound, the T/C [10] was 95 % of control.
For NNC(=O)C(O)C(O)C(O)C(O)CO (stereo unspecified), the T/C [11] was 92 % of control, the T/C (dose: 100.0 mg/kg/injection, schedule: Q01DX005 (ip), vehicle: saline) was 100 % of control and the T/C (dose: 200.0 mg/kg/injection, schedule: Q01DX005 (ip), vehicle: saline) was 100 % of control.
In the case of Cc1ccc(NC(=O)NCc2ccco2)cc1[N+](=O)[O-], the T/C [12] is reported as 96 % of control, the T/C [13] is reported as 96 % of control and the T/C [14] is reported as 89 % of control.
With Nc1cc(S(=O)(=O)O)c(Br)c(Br)c1Br the T/C (dose: 50.0 mg/kg/injection, schedule: Q01DX009 (ip), vehicle: saline) was 94 % of control, the T/C (dose: 100.0 mg/kg/injection, schedule: Q01DX009 (ip), vehicle: saline) was 95 % of control and the T/C (dose: 200.0 mg/kg/injection, schedule: Q01DX009 (ip), vehicle: saline) was 90 % of control.
In the case of O=C(OCOC(=O)c1ccccc1)c1ccccc1, the T/C [15] is reported as 117 % of control, the T/C [16] is reported as 107 % of control and the T/C (dose: 400.0 mg/kg/injection, schedule: Q01DX009 (ip), vehicle: Klucel (hydroxypropylcellulose) (HPC)) is reported as 109 % of control.
For Cc1cc(C(=O)N/N=C/c2ccccc2O)c2cc(Br)ccc2n1, the T/C [4] was 88 % of control, the T/C [5] was 92 % of control and the T/C [9] was 98 % of control. For the same compound, the T/C [10] was 97 % of control.
With O=C(NC(=O)c1ccccc1F)Nc1ccc(Cl)cc1 the T/C [17] was 101 % of control, the T/C [15] was 100 % of control and the T/C [16] was 91 % of control.
CNC(=S)SC1=NS(=O)(=O)c2ccccc2N1 was tested, and the T/C (dose: 30.0 mg/kg/injection, schedule: Q01DX005 (ip), vehicle: Klucel (hydroxypropylcellulose) (HPC)) was 111 % of control, the T/C [1] was 99 % of control and 110 % of control and the T/C [2] was 116 % of control and 117 % of control.
With CC1=C(c2ccccc2)C2(c3ccccc3)OC(c3ccc([N+](=O)[O-])cc3)=NOC2(C)C1 (stereo unspecified) the T/C [6] was 93 % of control, the T/C [9] was 93 % of control and the T/C [10] was 96 % of control.
For CCN(CC)CCOc1ccc(C)c(C)c1, the T/C [7] was 106 % of control and the T/C [8] was 103 % of control.
With Cc1cccc(Br)[n+]1[O-] the T/C (dose: 12.5 mg/kg/injection, schedule: Q01DX001 (ip), vehicle: saline) was 100 % of control, the T/C (dose: 25.0 mg/kg/injection, schedule: Q01DX001 (ip), vehicle: saline) was 109 % of control and the T/C (dose: 50.0 mg/kg/injection, schedule: Q01DX001 (ip), vehicle: saline) was 100 % of control.
CC(=O)Oc1ccc(OC(C)=O)c(CBr)c1CBr was tested, and the T/C (dose: 25.0 mg/kg/injection, schedule: Q04DX002 (ip), vehicle: Klucel (hydroxypropylcellulose) (HPC)) was 100 % of control, the T/C (dose: 50.0 mg/kg/injection, schedule: Q04DX002 (ip), vehicle: Klucel (hydroxypropylcellulose) (HPC)) was 95 % of control and the T/C (dose: 100.0 mg/kg/injection, schedule: Q04DX002 (ip), vehicle: Klucel (hydroxypropylcellulose) (HPC)) was 87 % of control and 93 % of control.
c1c[se]c(-c2nc3ccccc3[nH]2)c1 was tested, and the T/C (dose: 12.5 mg/kg/injection, schedule: Q01DX005 (ip), vehicle: Klucel (hydroxypropylcellulose) (HPC)) was 99 % of control, the T/C (dose: 25.0 mg/kg/injection, schedule: Q01DX005 (ip), vehicle: Klucel (hydroxypropylcellulose) (HPC)) was 107 % of control and the T/C [12] was 110 % of control. The T/C [13] was 107 % of control.
O=C(O)CC12CC3CC(CC(=O)O)(C1)CC(CC(=O)O)(C3)C2 was tested, and the T/C [17] was 109 % of control, the T/C [15] was 108 % of control and the T/C [16] was 111 % of control.
For CCOC(=O)c1cc(Cl)ccc1OS(N)(=O)=O, the T/C [1] was 105 % of control, the T/C [2] was 100 % of control and the T/C [3] was 99 % of control.
In the case of C#CCN1c2c(nc(N)[nH]c2=O)NCC1CNc1ccc(C(=O)NC(CCC(=O)O)C(=O)O)cc1 (stereo unspecified), the T/C (dose: 50.0 mg/kg/injection, schedule: Q01DX005 (ip), vehicle: alkali diluted with saline) is reported as 105 % of control, the T/C (dose: 100.0 mg/kg/injection, schedule: Q01DX005 (ip), vehicle: alkali diluted with saline) is reported as 92 % of control and the T/C (dose: 200.0 mg/kg/injection, schedule: Q01DX005 (ip), vehicle: alkali diluted with saline) is reported as 105 % of control.
